Data as given in PMC6277767, “Broad and Region-Specific Impacts of the Synthetic Cannabinoid CP 55,940 in Adolescent and Adult Female Mouse Brains” (Frontiers in Molecular Neuroscience, 2018).

Tested on: CD1 female mouse brain lipidome
Experiment: Brain-region lipid levels (HPLC/MS/MS lipidomics) 2 h after single i.p. 3 mg/kg CP 55,940 vs vehicle
Format: in vivo
Protocol: The Bloomington Institutional Animal Care and Use Committee of Indiana University reviewed and approved the animal procedures. Female mice from the CD1 strain were utilized to match our study examining THC’s effects on the brain lipidome ([Leishman et al., 2018]). Mice were given a single i.p. injection of either 3 mg/kg CP or 1:1:18 cremophor:ethanol:saline vehicle (please refer to the section “3 mg/kg CP Is Relevant for Synthetic Cannabinoid Abuse and Has Stronger Effects on the Female Mouse Brain Lipidome During Adolescence” for a justification of dose and use of female mice). Three different age groups were given injections: PND 35 and PND 50 adolescents, and adult mice (PND 113). At least eight mice in each age group received CP and at least eight received vehicle. Matching the THC study time course ([Leishman et al., 2018]), mice were sacrificed via rapid decapitation 2 h after injection. Brains were immediately removed and flash-frozen in liquid nitrogen, and then stored at -80°C until dissections were performed. Brains were dissected on an ice-cold dissection plate into the following regions: STR, HIPP, CER, THAL, CTX, HYP, MID, and STEM. These abbreviations for these brain areas will be used exclusively when discussing the results generated by these specific dissections. Each dissected area was immediately placed in liquid nitrogen and then stored at -80°C until used for lipid extraction.
Tissue extracts were performed as previously described ([Bradshaw et al., 2006]; [Stuart et al., 2013]; [Raboune et al., 2014]; [Leishman et al., 2016a],[b], [2017], [2018]). First, samples were shock frozen in liquid nitrogen, weighed, and transferred to a centrifuge tube. The mass of the largest sample was multiplied by 50 to determine how many milliliters of HPLC-grade methanol (Fisher, Fair Lawn, NJ, United States) to add. Then, samples were spiked with 500 pmol deuterium-labeled NAGly (d8NAGly; Cayman Chemical, Ann Arbor, MI, United States). Samples were placed on ice in darkness for 2 h then individually homogenized and centrifuged at 19,000 × g for 20 min at 20°C. Supernatants were diluted with HPLC water (purified in house) to make a solution of 75% water, 25% supernatant. Lipids were partially purified on C18 solid phase extraction columns (Agilent, Palo Alto, CA, United States). A series of four elutions with 1.5 mL of 60%, 75%, 85%, and 100% methanol were collected ([Stuart et al., 2013]; [Leishman et al., 2016a],[b], [2018]).
As previously described ([Bradshaw et al., 2006]; [Tan et al., 2006]; [Smoum et al., 2010]; [Stuart et al., 2013]; [Tortoriello et al., 2013]; [Raboune et al., 2014]; [Leishman et al., 2016a],[b], [2017], [2018]), samples were analyzed using an Applied Biosystems API 3000 triple quadrupole mass spectrometer with electrospray ionization (Foster City, CA, United States). Using an Agilent XDB-C18 reversed phase analytical column and optimized mobile phase gradients, 20 μL from each elution were chromatographed. Two Shimadzu 10ADvp pumps (Columbia, MD, United States) provided the pressure for gradient elution. Mobile phase A: 20% methanol, 80% water (v/v) and 1 mM ammonium acetate (Sigma, St. Louis, MO, United States). Mobile phase B: 100% methanol, 1 mM ammonium acetate. Every method run began with 0% mobile phase B, reached 100% mobile phase B flowing at 0.2 mL/min, and gradually returned to 0% mobile phase B.
This screening library will be referred to as the lipidome when discussing data from this study. HPLC/MS/MS data were analyzed using Analyst software (Applied Biosystems) ([Bradshaw et al., 2006]; [Tan et al., 2006]; [Stuart et al., 2013]; [Tortoriello et al., 2013]; [Raboune et al., 2014]; [Leishman et al., 2016a],[b], [2017], [2018]). Chromatograms (Supplementary Figure 3) were generated by determining the retention time of analytes from the analytical column with a [M-1] or [M+1] parent peak and a fragmentation peak corresponding to the programmed values. […]

## CCCCCCC(C)(C)c1ccc([C@@H]2C[C@H](O)CC[C@H]2CCCO)c(O)c1 [CP 55,940]
PND 50 MID
  changes in lipid levels that were decreases: two
PND 50 MID, 62 detected
  number of lipids changed: 26
PND 50 STEM
  2-linoleoyl glycerol level vs vehicle: ↓ (1-1.49 times lower than vehicle)
  2-oleoyl glycerol level vs vehicle: ↓ (1-1.49 times lower than vehicle)
  2-palmitoyl glycerol level vs vehicle: ↓ (1-1.49 times lower than vehicle)
  6-ketoPGF1α level vs vehicle: ↓ (1-1.49 times lower than vehicle)
  Linoleic acid level vs vehicle: ↓ (1-1.49 times lower than vehicle)
  N-arachidonoyl GABA level vs vehicle: ↓ (1-1.49 times lower than vehicle)
  N-arachidonoyl phenylalanine level vs vehicle: ↑ (1-1.49 times higher than vehicle)
  N-arachidonoyl serine level vs vehicle: ↓ (1-1.49 times lower than vehicle)
  N-arachidonoyl taurine level vs vehicle: ↓ (1-1.49 times lower than vehicle)
  N-arachidonoyl tyrosine level vs vehicle: ↓ (1-1.49 times lower than vehicle)
  N-oleoyl methionine level vs vehicle: ↓ (1-1.49 times lower than vehicle)
  N-palmitoyl leucine level vs vehicle: ↑ (1-1.49 times higher than vehicle)
  N-palmitoyl tyrosine level vs vehicle: ↑ (1-1.49 times higher than vehicle)
  Oleic Acid level vs vehicle: ↓ (1-1.49 times lower than vehicle)
  PGE2 level vs vehicle: ↓ (1-1.49 times lower than vehicle)
  PGF2α level vs vehicle: ↓ (1-1.49 times lower than vehicle)
PND 50 STR
  2-arachidonoyl glycerol level vs vehicle: ↓ (1-1.49 times lower than vehicle)
  2-linoleoyl glycerol level vs vehicle: ↓ (1-1.49 times lower than vehicle)
  Arachidonic acid level vs vehicle: ↓ (1-1.49 times lower than vehicle)
  Linoleic acid level vs vehicle: ↓ (1-1.49 times lower than vehicle)
  N-arachidonoyl GABA level vs vehicle: ↓ (1-1.49 times lower than vehicle)
  N-arachidonoyl glycine level vs vehicle: ↓↓ (1.50-1.99 times lower than vehicle)
  N-arachidonoyl phenylalanine level vs vehicle: ↓ (1-1.49 times lower than vehicle)
  N-arachidonoyl taurine level vs vehicle: ↓ (1-1.49 times lower than vehicle)
  N-docosahexaenoyl GABA level vs vehicle: ↓ (1-1.49 times lower than vehicle)
  N-docosahexaenoyl glycine level vs vehicle: ↓↓ (1.50-1.99 times lower than vehicle)
  N-palmitoyl leucine level vs vehicle: ↑ (1-1.49 times higher than vehicle)
  N-palmitoyl tyrosine level vs vehicle: ↑ (1-1.49 times higher than vehicle)
  N-palmitoyl valine level vs vehicle: ↑↑ (1.50-1.99 times higher than vehicle)
  Oleic Acid level vs vehicle: ↓ (1-1.49 times lower than vehicle)
  PGF2α level vs vehicle: ↑ (1-1.49 times higher than vehicle)
PND 50 THAL
  2-arachidonoyl glycerol level vs vehicle: ↓ (1-1.49 times lower than vehicle)
  2-linoleoyl glycerol level vs vehicle: ↓ (1-1.49 times lower than vehicle)
  2-oleoyl glycerol level vs vehicle: ↓ (1-1.49 times lower than vehicle)
  6-ketoPGF1α level vs vehicle: ↑↑ (1.50-1.99 times higher than vehicle)
  Arachidonic acid level vs vehicle: ↓ (1-1.49 times lower than vehicle)
  Linoleic acid level vs vehicle: ↓ (1-1.49 times lower than vehicle)
  N-arachidonoyl GABA level vs vehicle: ↓ (1-1.49 times lower than vehicle)
  N-arachidonoyl ethanolamine level vs vehicle: ↓ (1-1.49 times lower than vehicle)
  N-arachidonoyl glycine level vs vehicle: ↓↓ (1.50-1.99 times lower than vehicle)
  N-arachidonoyl phenylalanine level vs vehicle: ↓↓ (1.50-1.99 times lower than vehicle)
  N-arachidonoyl taurine level vs vehicle: ↓ (1-1.49 times lower than vehicle)
  N-arachidonoyl tyrosine level vs vehicle: ↓ (1-1.49 times lower than vehicle)
  N-docosahexaenoyl GABA level vs vehicle: ↓ (1-1.49 times lower than vehicle)
  N-linoleoyl GABA level vs vehicle: ↓↓ (1.50-1.99 times lower than vehicle)
  N-palmitoyl leucine level vs vehicle: ↑ (1-1.49 times higher than vehicle)
  N-palmitoyl serine level vs vehicle: ↓ (1-1.49 times lower than vehicle)
  N-stearoyl serine level vs vehicle: ↓ (1-1.49 times lower than vehicle)
  Oleic Acid level vs vehicle: ↓ (1-1.49 times lower than vehicle)
  PGE2 level vs vehicle: ↓ (1-1.49 times lower than vehicle)
  PGF2α level vs vehicle: ↓ (1-1.49 times lower than vehicle)
PND 50 brain
  changes in NAEs (all decreases): 16
  changes in lipoamines derived from AA: 41
  decreases in 2-acyl glycerol levels: 17
  decreases in PG levels: 11
  decreases in free fatty acid levels: 16
  increases in PG levels: 7
PND 50 brain, 450 detected
  percentage of detected lipids modified with acute CP: 31.33%
adult
  total changes in lipid levels across the eight regions: 97
Adult CER
  2-arachidonoyl glycerol level vs vehicle: ↓ (1-1.49 times lower than vehicle)
  2-linoleoyl glycerol level vs vehicle: ↓↓ (1.50-1.99 times lower than vehicle)
  2-oleoyl glycerol level vs vehicle: ↓ (1-1.49 times lower than vehicle)
  6-ketoPGF1α level vs vehicle: ↓ (1-1.49 times lower than vehicle)
  Arachidonic acid level vs vehicle: ↓ (1-1.49 times lower than vehicle)
  Linoleic acid level vs vehicle: ↓↓ (1.50-1.99 times lower than vehicle)
  N-arachidonoyl GABA level vs vehicle: ↓↓ (1.50-1.99 times lower than vehicle)
  N-arachidonoyl ethanolamine level vs vehicle: ↓↓ (1.50-1.99 times lower than vehicle)
  N-arachidonoyl phenylalanine level vs vehicle: ↓↓↓ (2-2.99 times lower than vehicle)
  N-arachidonoyl taurine level vs vehicle: ↓ (1-1.49 times lower than vehicle)
  N-docosahexaenoyl GABA level vs vehicle: ↓ (1-1.49 times lower than vehicle)
  N-docosahexaenoyl ethanolamine level vs vehicle: ↓ (1-1.49 times lower than vehicle)
  N-linoleoyl GABA level vs vehicle: ↓ (1-1.49 times lower than vehicle)
  N-linoleoyl ethanolamine level vs vehicle: ↓↓ (1.50-1.99 times lower than vehicle)
  N-oleoyl serine level vs vehicle: ↓ (1-1.49 times lower than vehicle)
  N-oleoyl valine level vs vehicle: ↑↑↑ (2-2.99 times higher than vehicle)
  N-palmitoyl tyrosine level vs vehicle: ↓ (1-1.49 times lower than vehicle)
  Oleic Acid level vs vehicle: ↓↓ (1.50-1.99 times lower than vehicle)
  PGE2 level vs vehicle: ↓ (1-1.49 times lower than vehicle)
  PGF2α level vs vehicle: ↓ (1-1.49 times lower than vehicle)
  changes in lipid levels that were decreases: 20
  changes in lipid levels that were increases: 1
  phosphoLEA level vs vehicle: ↓ (1-1.49 times lower than vehicle)
Adult CER, 53 detected
  number of lipids changed: 21
Adult CTX
  2-linoleoyl glycerol level vs vehicle: ↓ (1-1.49 times lower than vehicle)
  6-ketoPGF1α level vs vehicle: ↓ (1-1.49 times lower than vehicle)
  Arachidonic acid level vs vehicle: ↓ (1-1.49 times lower than vehicle)
  N-arachidonoyl taurine level vs vehicle: ↓ (1-1.49 times lower than vehicle)
  N-linoleoyl GABA level vs vehicle: ↓ (1-1.49 times lower than vehicle)
  N-palmitoyl valine level vs vehicle: ↑ (1-1.49 times higher than vehicle)
  N-stearoyl phenylalanine level vs vehicle: ↓↓ (1.50-1.99 times lower than vehicle)
  PGF2α level vs vehicle: ↓ (1-1.49 times lower than vehicle)
Adult CTX, 58 detected
  number of lipids changed: eight
Adult HIPP
  2-linoleoyl glycerol level vs vehicle: ↓ (1-1.49 times lower than vehicle)
  N-arachidonoyl GABA level vs vehicle: ↓ (1-1.49 times lower than vehicle)
  N-arachidonoyl alanine level vs vehicle: ↓ (1-1.49 times lower than vehicle)
  N-arachidonoyl glycine level vs vehicle: ↓ (1-1.49 times lower than vehicle)
  N-arachidonoyl phenylalanine level vs vehicle: ↓↓ (1.50-1.99 times lower than vehicle)
  N-docosahexaenoyl GABA level vs vehicle: ↓ (1-1.49 times lower than vehicle)
  N-oleoyl GABA level vs vehicle: ↓ (1-1.49 times lower than vehicle)
  N-oleoyl phenylalanine level vs vehicle: ↓ (1-1.49 times lower than vehicle)
